Molecular target: T1, Cholecystokinin receptor (Homo sapiens, UniProt P32239+P32238)
T1 sequence (P32239 whole entry): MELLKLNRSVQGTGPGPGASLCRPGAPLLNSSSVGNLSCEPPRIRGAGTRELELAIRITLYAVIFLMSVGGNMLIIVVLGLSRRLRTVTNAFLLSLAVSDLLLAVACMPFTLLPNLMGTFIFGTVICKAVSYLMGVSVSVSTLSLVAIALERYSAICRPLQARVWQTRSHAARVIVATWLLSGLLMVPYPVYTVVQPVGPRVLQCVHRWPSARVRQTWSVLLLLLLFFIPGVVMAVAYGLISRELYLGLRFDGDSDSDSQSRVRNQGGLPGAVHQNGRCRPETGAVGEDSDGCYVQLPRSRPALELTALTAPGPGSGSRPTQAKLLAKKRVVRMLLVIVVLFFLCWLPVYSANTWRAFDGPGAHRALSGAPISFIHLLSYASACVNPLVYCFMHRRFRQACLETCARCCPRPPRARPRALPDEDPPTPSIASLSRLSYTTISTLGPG
T1 sequence (P32238 whole entry): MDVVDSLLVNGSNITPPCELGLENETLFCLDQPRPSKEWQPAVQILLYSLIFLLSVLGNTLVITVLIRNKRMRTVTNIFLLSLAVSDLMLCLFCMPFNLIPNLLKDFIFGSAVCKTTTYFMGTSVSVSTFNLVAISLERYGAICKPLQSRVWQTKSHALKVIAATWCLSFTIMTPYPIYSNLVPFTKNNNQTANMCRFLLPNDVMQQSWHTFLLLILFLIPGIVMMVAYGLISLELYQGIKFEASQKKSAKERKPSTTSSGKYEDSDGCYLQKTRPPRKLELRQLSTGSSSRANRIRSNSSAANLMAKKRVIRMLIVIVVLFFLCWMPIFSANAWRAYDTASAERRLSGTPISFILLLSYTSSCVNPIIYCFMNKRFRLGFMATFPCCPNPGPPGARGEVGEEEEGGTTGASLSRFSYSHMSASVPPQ
Test: Ability to stimulate intracellular calcium response was determined using CCK receptor-bearing chinese hamster ovary cell line
Type: functional, cell-based, Cricetulus griseus

Row | SMILES | EC50 [nM]
1 | CCCC[C@H](NC(=O)[C@H](Cc1c[nH]c2ccccc12)NC(=O)[C@H](Cc1ccc(C(=O)c2ccccc2)cc1)NC(=O)[C@H](CCCC)NC(=O)[C@H](Cc1ccc(OS(=O)(=O)O)cc1)NC(=O)[C@H](CC(=O)O)NC(=O)CNC(=O)[C@H](N)Cc1ccc(O)cc1)C(=O)N[C@@H](CC(=O)O)C(=O)N[C@@H](Cc1ccccc1)C(N)=O | 28
2 | CCCC[C@H](NC(=O)[C@H](Cc1c[nH]c2ccccc12)NC(=O)[C@H](Cc1ccc(C(=O)c2ccccc2)cc1)NC(=O)[C@H](CCCC)NC(=O)[C@H](Cc1ccc(OS(=O)(=O)O)cc1)NC(=O)[C@H](CC(=O)O)NC(=O)CNC(=O)[C@H](N)Cc1ccc(O)cc1)C(=O)N[C@@H](CC(=O)O)C(=O)N[C@@H](Cc1ccc(C(=O)c2ccccc2)cc1)C(N)=O | 150
3 | CCCC[C@H](NC(=O)[C@H](Cc1ccc(OS(=O)(=O)O)cc1)NC(=O)[C@H](CC(=O)O)NC(=O)CNC(=O)[C@H](N)Cc1ccc(O)cc1)C(=O)NCC(=O)N[C@@H](Cc1c[nH]c2ccccc12)C(=O)N[C@@H](CCCC)C(=O)N[C@@H](CC(=O)O)C(=O)N[C@@H](Cc1ccc(C(=O)c2ccccc2)cc1)C(N)=O | 280
